In US20120122965A1, “COMPOSITIONS FOR SKIN PROTECTION AND IMPROVEMENT OF SKIN DISEASES CONTAINING THE DIBENZO-P-DIOXINE DERIVATIVES” (priority 2007, published 2012):

How the values were obtained:
[1] = test system: B-16 cells (mouse melanoma, ATCC CRL 6323); test: Inhibition of melanin synthesis; assay type: cell-based; settings: 50 μg/ml, 3 days, vs solvent control
Method: Catechin, rasveratrol, isoflavone, kojic acid, ascorbic acid, and Moriradicis cortex extracts were used as positive controls.
The B-16 cells (mouse melanoma, ATCC CRL 6323) were maintained in the DMEM medium supplemented 4.5 g/E of glucose, 10% serum, and 1% antibiotic at 37° C. for 24 hours. After the cell was incubated with 0.05% trypsin containing 0.02% EDTA, the cell was plated and incubated for 48 hours. The cells were treated with 50 μg/ml of compositions 1 to 18, or positive controls and incubated at 37° C. for 3 days. The cells were then added with 1 me of lysis buffer (phosphate buffer solution, 0.02% EDTA, 0.05% trypsin) and centrifuged for 5 min After the cells were treated with 5% trichloro acetate (TCA), the farmed melanin was separated and dissolved in 1N NaOH. The absorbance was measured at 475 nm using spectrophotometer. Concentration of melanin was determined by the standard curve of synthetic melanin (SIGMA CO. USA). The cell treated with the same amount of solvent was used as a negative control. The inhibitory effects of each composition on melanin synthesis were determined by following Equation.
{1−(M/M0)}×100 [Equation]
M: amount of melanin of test group or positive controls
M0: amount of melanin of negative control

elastase = test: Inhibition of elastase; assay type: biochemical; settings: 50 μg/ml, 10 nM elastase, 25° C., 10 min
Method: Catechin, rasveratrol, isoflavone, lactokine were used for positive controls. […] The cell treated with the same amount of solvent was used as a negative control. The inhibitory effects of each sample on elastase were determined by following Equation. The results are described in Table 3. {1−(E/E0)}×100 [Equation] E: The absorbance of test group or positive control E0: The absorbance of negative control

[2] = test system: rat basophilic leukemia cell (RBL-2H3); test: Inhibition on histamine release (DNP-BSA stimulated); assay type: cell-based; settings: 50 μg/ml, RBL-2H3 cells, vs negative control
Method: In order to assess the anti-inflammation and anti-allergic activities of the compositions in the present invention, the inhibitory effects of the compositions on histamine synthesis, which closely related with inflammation including allergy, were investigated. The inhibitory effects of the compositions on histamine synthesis were assessed using the rat basophilic leukemia cell (RBL-2H3) according to the Kawasaki's method. After the cell (1×10^5 cells/well) was cultured in RPMI 1640 medium supplemented with 2% FBS (fetal bovine serum) and rat anti-DNP (dinitrophenol) IgE at 37° C. for 120 min, the cell was washed with the HPEPS buffer to remove the residual IgE. The cells was incubated in either absence (negative control) or presence (test group) of the com[…]. for 10 min. The cell was then treated with DNP-BSA (Dinitrophenol-conjugated Bovine serum albumin), as a histamine release antigen, for 1 hour at 37° C. After the reaction was stopped by adding the HEPES buffer solution, the supernatant was collected and treated with 20 μl of the perchloric acid and centrifuged. The histamine release in the supernatant was measured using the HPLC. The % inhibitions on histamine release of test group were calculated by following Equation compared with negative control. […] H: histamine release of test group H0: histamine release of negative control

[3] = test system: TG (triacyl glycerol) synthesis; test: Inhibition of TG synthesis in hamster auricles; assay type: in vivo
Method: The prevention and treatment effects of the compositions on the acne were assessed through the inhibition of TG (triacyl glycerol) synthesis and sebocyte proliferation in hamster model.
The inhibitory effects of the composition 6 and 14 on TG synthesis were assessed as compared with catechin (positive control group). 5 week-old male hamster was divided into three groups (negative control group, test group, positive control group) and housed 10 animals to a cage after the acclimatization for 2 weeks. Animal rooms were maintained at 25±1° C. and 55% of humidity with a 12-hr light/dark cycle. The animals were freely accessed to diet and water throughout the study. The auricles of hamster were topically treated once a day for 14 days with 200 μl of 10% of the composition 6, 14 or catechin. The solvent for topical application was composed of a mixture of ethanol and glycerol (95:5, v/v). The animals in negative control group were treated with the same volume of vehicle. The auricles were separated from the body and the sebum generated on the skin surface was extracted with acetone. The amount of TG in skin surface was calculated from the sebum extracts. Sebocyte were suspended into solution from the auricle tissues using sonicator, and then amount of intercellar TG was determined by automatic thin-layer chromatography using triolate as a standard. The relative TG concentrations of each sample were calculated from comparison with negative control.

Hamster sebocyte = test: Suppression of sebocyte proliferation ([3H] thymidine); assay type: cell-based; settings: for % of untreated cell / cell number (×10^3 d.p.m/well): 12 days; for cell number (×10^3 d.p.m/well): control 2.90 ± 0.20
Method: Hamster sebocyte were established from sebaceous glands of auricles of the 5 week-old hamsters according to Sato's method. Sebocytes (2.35×10^4 cells/plate) were cultured in DMEM/F12 medium supplemented with 2% FBS and 2% human serum for 24 hours. The cells were treated with the composition 6 and 14 in different concentrations one time per 3 days for 12 days. The [^3H] thymidine (1 kBq/well) (Amersham Bioscience) was added 3 hours before the final treatment. The amount of [^3H] thymidine combined with DNA was measured by using liquid scintillation counter. The cell proliferation activity was determined as compared with negative control.

[4] = test system: pro-inflammatory cytokines (IL-1α, IL-1β, IL-6, IL-8, and TNF-α); test: Suppression of inflammatory gene expression induced by UV exposure in NHEK cells; assay type: cell-based, human; settings: 50 μg/ml, UVB 40 mJ, compared with positive control (UVB only), FIG. 3
Method: The anti-inflammation effects of the compositions were investigated by measuring the UVB-induced generation of pro-inflammatory cytokines (IL-1α, IL-1β, IL-6, IL-8, and TNF-α) in the epidermis.
The normal human epidermal keratinocytes (NHEK cell line) were incubated in the keratinocyte-SFM medium (serum-free medium) at 95% humidity in 5% carbon dioxide at 37° C. The cells were placed (3×10^4 cells/wall) into the 96-well plate and allowed to adhere 24 hours. The cells were treated with the composition 6, 16 or green tea extract in the concentration of 50 μg/ml. DMSO (dimethyl sulfoxide) was used as a solvent and the final concentration of DMSO was 0.1% (v/v). After incubation for 24 hours, the cells were was irradiated with UVB (40 mJ/cd). The cultured supernatants were collected 24 hour after UVB irradiation. The concentrations of pro-inflammatory cytokines (IL-1β, IL-6, IL-8, and TNF-α) were deteHnined from Human Inflammation Cytometric Bead Assay kit (Becton Deckinson, San Diego, USA). The concentration of IL-1α was measured using the enzyme immunoassay. The results are described in FIG. 2. The negative control indicates the cells which were neither irradiated nor treated with the compositions, and the positive control means the cells which were only irradiated with UVB without treatment of the compositions.

[5] = test system: NB1RGB cells (normal human fibroblast cell line from skin); settings: concentration that reaches 50% of apoptosis, 1 hour incubation
Method: (§1) The cytotoxicity of the compositions to the normal skin cell was assessed using the NHEK (F) cells (normal human epidermal keratinocytes of neonatal foreskin cell) and the NB1RGB cells (normal human fibroblast cell line from skin). NHEK (F) and NB1RGB cells, which are main components of the epidermis and Bemis in normal human skin, produce collagen and elastin and provide skin elasticity.
(§2) The mixture of PMS/WST-1 (1-methoxy-5-methylphenazinium methyl sulfate/2-(4-indophenyl)-3-(4-nitrophenyl)-5-(2,4-disulfo phenyl)-2H-tetrazolium monosodium salt) was added to the medium and incubated for 1 hour to generate soluble formosan, and then the absorbance was measured at 415 nm using spectrophotometer. The cells treated with solvent without the compositions were used as a negative control, whereas the cells treated with 1% (w/v) SDS solution were used as a positive control (100% cell apoptosis).
(§3) apoptosis(%)=(A0−A/A0−As)×100 [Equation]
(§4) A0=absorbance of the cell that was not treated with the composition
(§5) A=absorbance of the cell that was treated with the composition […]
(§6) As=absorbance of the cell that was treated with 1% (w/v) SDS (positive control group)

[6] = test system: NHEK (F) cells (normal human epidermal keratinocytes of neonatal foreskin cell); settings: concentration that reaches 50% of apoptosis, 1 hour incubation
Method: as §1, §2, §3, §4, §5, §6

[7] = hamster auricles, 200 μl of 10% solution topically once a day for 14 days, control group = 100
[8] = sample concentration 10 (unit not given)
[9] = sample concentration 20 (unit not given)
[10] = sample concentration 40 (unit not given)

## Oc1cc(O)cc(Oc2c(O)cc(O)c3c2Oc2c(cc(O)c(-c4c(O)cc5c(c4O)Oc4c(Oc6cc(O)cc(O)c6)c(O)cc(O)c4O5)c2O)O3)c1 [composition 6]
[1]
  Inhibitory effect on melanin synthesis (%): 89.8%
elastase
  Inhibition of Elastase (%): 89.9%
[2]
  % Inhibition on histamine release: 75.9%
[3]; compared with negative control
  sebum production on skin surface and in the skin cell: significantly decrease sebum production
[3]; [7]
  Relative TG concentration in the skin cell (%): 54.9%
  Relative TG concentration in the skin surface (%): 66.2%
Hamster sebocyte; Table 9, in words
  sebocyte proliferation: significantly suppressed sebocyte proliferation
Hamster sebocyte; [8]
  % of untreated cell: 78.4%
  cell number (×10^3 d.p.m/well): 2.26 ± 0.67 ×10^3 d.p.m/well
Hamster sebocyte; [9]
  % of untreated cell: 30.2%
  cell number (×10^3 d.p.m/well): 0.87 ± 0.07 ×10^3 d.p.m/well
Hamster sebocyte; [10]
  % of untreated cell: 10.4%
  cell number (×10^3 d.p.m/well): 0.30 ± 0.05 ×10^3 d.p.m/well
[4]
  levels of pro-inflammatory cytokines: significantly decrease levels of pro-inflammatory cytokines
[5]
  LD50 (μM) NB1RGB cell: 97.3 µM
[6]
  LD50 (μM) NHEK (F) cell: 105.4 µM
